Test results taken from patent US20260184669A1, “LIPID COMPOUND AND COMPOSITION FOR DELIVERY OF ACTIVE SUBSTANCE” (KOREA RESEARCH INSTIUTE OF BIOSCIENCE AND BIOTECHNOLOGY, priority 2022, published 2026).

What was measured:
[1] = system: CCL3 mRNA level in HEK-293T cells; conditions: human
[2] = system: IL-6 mRNA level in HEK-293T cells; conditions: human
[3] = system: IL-1β mRNA level in HEK-293T cells; conditions: human
[4] = system: CCL2 mRNA level in HEK-293T cells; conditions: human
[5] = Size, polydispersity index and surface charge of mRNA-LNP (Malvern Zetasizer Nano ZS90); format: physicochemical; conditions: for PDI / size (nm) Number: mRNA-LNP made with the ionizable lipid at its optimal formulation (Table 2); for size (nm) Number: diluted with PBS to 1 μg/mL mRNA; for Zeta (mV): surface charge of mRNA-LNP made with the ionizable lipid at its optimal formulation (Table 2)
Protocol: Each mRNA-LNPs produced in Example 27 was diluted with PBS to a final mRNA concentration of 1 μg/mL. The size, polydispersity index (PDI), and surface charge of the mRNA-LNPs were then measured using a Malvern Zetasizer Nano ZS90 (Malvern Instruments, UK).
For particles intended for systemic administration, such as via blood vessels, the particle size must be less than 200 nm in order to pass through the endothelial capillaries of the liver. In addition, the size distribution is considered uniform only when the PDI is 0.3 or less, which enables consistent and efficient therapeutic effects (Non-patent document 3 [Danaei, M. et al). Pharmaceutics 2018, 10, 57]).

[6] = mRNA encapsulation efficiency (Quant-IT RiboGreen RNA assay); format: physicochemical; conditions: mRNA encapsulation efficiency of mRNA-LNP made with the ionizable lipid; average of two measurements
Protocol: The mRNA encapsulation efficiency (EE, %) of LNPs containing mRNA was measured using the Quant-IT™ RiboGreen® RNA assay kit (Invitrogen, USA).
The diluted samples were added to each well of a 96-well plate. Group A (without Triton X-100) was supplemented with 50 μL of 1×TE buffer, while Group B (with Triton X-100) was supplemented with 50 μL of 1×TE buffer containing 2% Triton-X 100. To release the encapsulated mRNA, the LNPs were treated with Triton-X 100 and incubated at 37° C. for 10 minutes. Subsequently, 100 μL of ribogreen reagent was added to each well. The fluorescence intensities of Group A and Group B were measured using a multi-plate reader (λex 480 nm, λem 520 nm), and mRNA encapsulation efficiency (%) was calculated using Equation 1 below. The encapsulation efficiency for each LNP was determined as the average of two independent measurements.

[7] = Stability of mRNA-LNPs according to storage temperature and duration; format: physicochemical; conditions: for Normalized EE % D-1 / Size (nm) D-1 / PDI D-1: day 1; for Normalized EE % D-7 / PDI D-7 / Size (nm) D-7: day 7; for Normalized EE % D-30 / PDI D-30 / Size (nm) D-30: day 30
Protocol: Stability of fLuc mRNA-LNPs produced using various ionizable lipids according to the method of Example 27, was assessed by storing the LNPs at 4° C. and 25° C. At 1, 7, and 30 days post-manufacture, the size, PDI, and encapsulation efficiency (EE) of each mRNA-LNPs samples were measured using the methods described in Experimental Examples 2 and 3.

[8] = system: female C57BL/6 mice; assay: Protein expression efficiency of fLuc mRNA-LNPs after intramuscular injection (IVIS whole-body luminescence); format: in vivo; conditions: for Total flux 1 hour / Total flux 3 hours / Total flux 6 hours / Total flux 48 hours / Total flux 72 hours / Total flux: fLuc mRNA-LNP, intramuscular injection, luminescence at injection site, mice; for Total flux 1 hour: 1 hour after administration; for Total flux 3 hours: 3 hours after administration; for Total flux 6 hours: 6 hours after administration; for Total flux 48 hours: 48 hours after administration; for Total flux 72 hours: 72 hours after administration; for Total flux: after administration; for Fold increase in total flux at 3 h, MC3: relative to control LNP formulated with MC3; for Fold increase in total flux at 3 h, MC3 / Fold increase in total flux at 3 h, SM-102: 3 hours after intramuscular injection; for Fold increase in total flux at 3 h, SM-102: relative to control LNP formulated with SM-102
Protocol: fLuc mRNA-LNPs formulated using various ionizable lipids were prepared according to the method described in Example 27 and administered in vivo via intramuscular (I. M.) or intravenous (IV.) injection to compare the resulting protein expression efficiency in vivo. As a control, EGFP mRNA-LNPs formulated with commercially available ionizable lipids MC3 or SM-102 were used. All mRNA-LNPs were administered at equal mRNA doses per body weight across different concentration groups (n≥4).
Specifically, the dose of mRNA-LNPs was adjusted to 0.1-0.5 mg/kg of body weight, and the formulation was administered via I.M. or I.V. injection to female C57BL/6 mice (6-10 weeks old, Orient Bio, Korea) Subsequently, […], whole-body luminescence images were acquired using an in vivo imaging system (IVIS Lumina III, PerkinElmer, Walzam, MA, USA). To assess protein expression levels, 200 μL of D-luciferin (15 mg/mL) was administered via intraperitoneal (I.P.) injection 10 minutes prior to imaging. During image acquisition, the animals were anesthetized by inhalation of 3% isoflurane in 97% medical grade oxygen. In addition, the acquired luminescence images were quantitatively analyzed using imaging software (Living Image Software Version 4.4; PerkinElmer, USA).
After intramuscular injection of the fLuc mRNA-LNPs, the luminescence intensity at the injection site was measured over time.
Furthermore, the luminescence intensity at the injection site 3 hours after intramuscular injection was measured, and the relative protein expression efficiency was compared to that of control LNPs formulated with MC3 or SM-102.

SMILES	CCL3 Average [1]	IL-6 Average [2]	IL-1β Average [3]	CCL2 Average [4]	PDI [5]	size (nm) Number [5]	Zeta (mV) [5]	EE (%) [6]	Normalized EE % D-1 ([7]; fLuc mRNA-LNP stored at 4° C.)	Size (nm) D-1 ([7]; fLuc mRNA-LNP stored at 4° C.)	Normalized EE % D-7 ([7]; fLuc mRNA-LNP stored at 4° C.)	PDI D-7 ([7]; fLuc mRNA-LNP stored at 4° C.)	Total flux 1 hour [8]	Total flux 3 hours [8]	Total flux 6 hours [8]	Total flux 48 hours [8]	Total flux 72 hours [8]	Total flux [8]	Fold increase in total flux at 3 h, MC3 [8]	Fold increase in total flux at 3 h, SM-102 [8]	also measured
CCCCCCCCCCCOC(=O)CCCCCN(CCCCCCCC(=O)OC(CCCCCCCC)CCCCCCCC)CC(O)CCCCNC(=O)c1c(O)ccn1C (stereo not shown) [Compound 24, Heptadecan-9-yl 8-((2-hydroxy-6-(3-hydroxy-1-methyl-1H-pyrrole-2-carboxamido)hexyl)(6-oxo-6-(undecyloxy)hexyl)amino)octanoate]	1.36	0.87	0.99	0.96	0.114	137 nm	−7.89 mV	90%	89.7%	136.9 nm	90.5%	0.114	6.70E+06	3.49E+07	4.45E+07	3.86E+06	3.66E+06	7.85E+06	2.82	0.31	Size (nm) D-7 ([7]; fLuc mRNA-LNP stored at 4° C.): 123.7 nm; Normalized EE % D-1 ([7]; fLuc mRNA-LNP stored at 25° C.): 89.7%; PDI D-1 ([7]; fLuc mRNA-LNP stored at 25° C.): 0.114; Size (nm) D-1 ([7]; fLuc mRNA-LNP stored at 25° C.): 136.9 nm; Normalized EE % D-7 ([7]; fLuc mRNA-LNP stored at 25° C.): 89.6%; PDI D-7 ([7]; fLuc mRNA-LNP stored at 25° C.): 0.163; Size (nm) D-7 ([7]; fLuc mRNA-LNP stored at 25° C.): 113.5 nm
CCCCCCCCCCCOC(=O)CCCCCN(CCCCCCCC(=O)OC(CCCCCCCC)CCCCCCCC)CC(O)CCCCNC(=O)c1ccn(C)c1 (stereo not shown) [Compound 19, Heptadecan-9-yl 8-((2-hydroxy-6-(1-methyl-1H-pyrrole-3-carboxamido)hexyl) (6-oxo-6-(undecyloxy)hexyl)amino)octanoate]	1.04	0.89	1.07	0.91	0.193	185 nm	−5.68 mV	93%	93.1%	184.7 nm	90.6%	0.122	3.16E+07	5.15E+07	3.82E+07	1.12E+06	5.38E+05	8.29E+06	4.17	0.46	Size (nm) D-7 ([7]; fLuc mRNA-LNP stored at 4° C.): 161.2 nm; Normalized EE % D-30 ([7]; fLuc mRNA-LNP stored at 4° C.): 87.2%; PDI D-30 ([7]; fLuc mRNA-LNP stored at 4° C.): 0.071; Size (nm) D-30 ([7]; fLuc mRNA-LNP stored at 4° C.): 177.4 nm; Normalized EE % D-1 ([7]; fLuc mRNA-LNP stored at 25° C.): 93.1%; PDI D-1 ([7]; fLuc mRNA-LNP stored at 25° C.): 0.193; Size (nm) D-1 ([7]; fLuc mRNA-LNP stored at 25° C.): 184.7 nm; Normalized EE % D-7 ([7]; fLuc mRNA-LNP stored at 25° C.): 88.1%; PDI D-7 ([7]; fLuc mRNA-LNP stored at 25° C.): 0.107; Size (nm) D-7 ([7]; fLuc mRNA-LNP stored at 25° C.): 172.5 nm; Normalized EE % D-30 ([7]; fLuc mRNA-LNP stored at 25° C.): 88.3%; PDI D-30 ([7]; fLuc mRNA-LNP stored at 25° C.): 0.159; Size (nm) D-30 ([7]; fLuc mRNA-LNP stored at 25° C.): 171.7 nm
CCCCCCCCCCCOC(=O)CCCCCN(CCCCCCCC(=O)OC(CCCCCCCC)CCCCCCCC)CC(O)CCCCNC(=O)c1[nH]ccc1O (stereo not shown) [Compound 21, Heptadecan-9-yl 8-((2-hydroxy-6-(3-hydroxy-1H-pyrrole-2-carboxamido)hexyl)(6-oxo-6-(undecyloxy)hexyl)amino)octanoate]	1.82	1.39	1.18	0.63	0.155	112 nm	−4.55 mV	92%					1.98E+07	1.29E+08	9.56E+07	3.51E+06	1.66E+06	1.25E+07	10.42	1.14	protein expression compared to the control group (SM-102) ([8]; 3 hours post intramuscular injection, in words): significantly higher protein expression
CCCCCCCCCCCOC(=O)CCCCCN(CCCCCCCC(=O)OC(CCCCCCCC)CCCCCCCC)CC(O)CCCCNC(=O)c1cncn1C (stereo not shown) [Compound 38, Heptadecan-9-yl 8-((2-hydroxy-6-(1-methyl-1H-imidazole-5-carboxamido)hexyl)(6-oxo-6-(undecyloxy)hexyl)amino)octanoate]					0.132	142 nm	−4.28 mV	88%	88.5%	142.2 nm	91.1%	0.086	2.19E+07	4.19E+07	1.47E+07	7.89E+05	5.32E+05	2.13E+06	3.39	0.37	Size (nm) D-7 ([7]; fLuc mRNA-LNP stored at 4° C.): 141.1 nm; Normalized EE % D-30 ([7]; fLuc mRNA-LNP stored at 4° C.): 87.6%; PDI D-30 ([7]; fLuc mRNA-LNP stored at 4° C.): 0.086; Size (nm) D-30 ([7]; fLuc mRNA-LNP stored at 4° C.): 147.3 nm; Normalized EE % D-1 ([7]; fLuc mRNA-LNP stored at 25° C.): 89.5%; PDI D-1 ([7]; fLuc mRNA-LNP stored at 25° C.): 0.132; Size (nm) D-1 ([7]; fLuc mRNA-LNP stored at 25° C.): 142.2 nm; Normalized EE % D-7 ([7]; fLuc mRNA-LNP stored at 25° C.): 88.0%; PDI D-7 ([7]; fLuc mRNA-LNP stored at 25° C.): 0.093; Size (nm) D-7 ([7]; fLuc mRNA-LNP stored at 25° C.): 140.4 nm; Normalized EE % D-30 ([7]; fLuc mRNA-LNP stored at 25° C.): 86.1%; PDI D-30 ([7]; fLuc mRNA-LNP stored at 25° C.): 0.041; Size (nm) D-30 ([7]; fLuc mRNA-LNP stored at 25° C.): 152.0 nm
